Results published in US9133104B2 (Chroma Therapeutics Ltd., priority 2005, dated 2015).

Assays:
[1] = molecular target: T1, histone deacetylase activity (HeLa nuclear extract); assay: HDAC fluorescent activity assay (Biomol Fluor de Lys), HeLa nuclear extract; assay type: biochemical; conditions: Fluor de Lys substrate, IC50 range
T1 construct: Histone deacetylase activity from crude nuclear extract derived from HeLa cells was used for screening
Procedure, shortened: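 Crude HeLa nuclear extract (20 mM Hepes, 100 mM KCl, 0.2 mM EDTA, 0.5 mM DTT, 0.2 mM PMSF, 20% glycerol) incubated with acetyl-lysine Fluor de Lys substrate ± inhibitor; developer generates fluorophore. Background-subtracted % of vehicle control; IC50 from eight-point variable-slope sigmoidal fit.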

[2] = system: Hela cancer cell line; assay: Cell inhibition assay (SRB cell viability), Hela; assay type: cell-based; conditions: 72 h, Hela cells, IC50 range
Description: (§1) The corresponding cancer cell lines (Hela, U937 and HUT) growing in log phase were harvested and seeded at 1000 cells/well (200 ul final volume) into 96-well tissue culture plates. Following 24 h of cell growth cells were treated with compounds (final concentration of 20 uM). Plates were then re-incubated for a further 72 h before a sulphorhodamine B (SRB) cell viability assay was conducted according to Skehan 1990 J Natl Canc Inst 82, 1107-1112.
(§2) Data were expressed as a percentage inhibition of the control, measured in the absence of inhibitor, as follows:— % inhibition=100−((S^i/S^o)×100) where S^i is the signal in the presence of inhibitor and S^o is the signal in the presence of DMSO. IC50 values were determined by non-linear regression analysis, after fitting the results of eight data points to the equation for sigmoidal dose response with variable slope (% activity against log concentration of compound), using Graphpad Prism software. […] NT=Not tested

[3] = system: U937 cancer cell line; assay: Cell inhibition assay (SRB cell viability), U937; assay type: cell-based; conditions: 72 h, IC50 range
Description: as §1, §2

[4] = system: HUT cancer cell line; assay: Cell inhibition assay (SRB cell viability), HUT; assay type: cell-based; conditions: HUT cells, 72 h, IC50 range
Description: as §1, §2

[5] = Homo sapiens, U-937, U937 cells

Row | SMILES | IC50 [1] [nM] | IC50 ([2]; Homo sapiens, HeLa) [µM] | IC50 [3, 5] [µM] | IC50 [4] [µM] | IC50 [2] [µM] | IC50 ([3]; U937 cells) [µM]
1 | O=C(CCCCCCC(=O)Nc1cccc(CN[C@H](C(=O)O)c2ccccc2)c1)NO [Compound 37, (S)-[3-(7-Hydroxycarbamoyl-heptanoylamino)-benzylamino]-phenyl-acetic acid] | 101 to 1000 | > 3.3 | > 3.3 | > 3.3 | – | –
2 | CC(C)C[C@H](NC(=O)c1cccc(NC(=O)CCCCCCC(=O)NO)c1)C(=O)OC1CCCC1 [Compound 62, (S)-2-[3-(7-Hydroxycarbamoyl-heptanoylamino)-benzoylamino]-4-methyl-pentanoic acid cyclopentyl ester] | 101 to 1000 | > 3.3 | > 3.3 | 0.33 to 3.3 | – | –
3 | COc1ccc2[nH]c3c(c2c1)CCN(C(=O)CCCCCCC(=O)NO)C3C(=O)N[C@H](C(=O)OC1CCCC1)c1ccccc1 (stereo partly drawn) [Compound 11, (S)-{[2-(7-Hydroxycarbamoyl-heptanoyl)-6-methoxy-2,3,4,9-tetrahydro-1H-beta-carboline-1-carbonyl]-amino}-phenyl-acetic acid cyclopentyl ester] | 101 to 1000 | – | 0.33 to 3.3 | 0.33 to 3.3 | 0.33 to 3.3 | –
4 | O=C(CCCCCCC(=O)N1CCc2c([nH]c3ccccc23)C1C(=O)N[C@H](C(=O)O)c1ccccc1)NO (stereo partly drawn) [Compound 10, (S)-{[2-(7-Hydroxycarbamoyl-heptanoyl)-2,3,4,9-tetrahydro-1H-beta-carboline-1-carbonyl]amino}-phenyl-acetic acid] | < 100 | > 3.3 | > 3.3 | > 3.3 | – | –
5 | O=C(CCCCCCC(=O)N1Cc2[nH]c3ccccc3c2C[C@@H]1C(=O)N[C@H](C(=O)OC1CCCC1)c1ccccc1)NO [Compound 1, (S)-{[(R)-2-(7-Hydroxycarbamoyl-heptanoyl)-2,3,4,9-tetrahydro-1H-beta-carboline-3-carbonyl]-amino}-phenyl-acetic acid cyclopentyl ester] | 101 to 1000 | > 3.3 | 0.33 to 3.3 | 0.33 to 3.3 | – | –
6 | O=C(CCCCCCC(=O)Nc1cccc(C(=O)N[C@H](C(=O)OC2CCCC2)c2ccccc2)c1)NO [Compound 60, (S)-[3-(7-Hydroxycarbamoyl-heptanoylamino)-benzoylamino]-phenyl-acetic acid cyclopentyl ester] | 101 to 1000 | 0.33 to 3.3 | 0.33 to 3.3 | 0.33 to 3.3 | – | –
7 | O=C(CCCCCCC(=O)Nc1ccc(CN[C@@H](C(=O)OC2CCCC2)c2ccccc2)cc1)NO [Compound 83, (R)-[4-(7-Hydroxycarbamoyl-heptanoylamino)-benzylamino]-phenyl-acetic acid cyclopentyl ester] | 101 to 1000 | 0.33 to 3.3 | 0.33 to 3.3 | 0.33 to 3.3 | – | –
8 | COc1ccc2[nH]c3c(c2c1)CCN(C(=O)CCCCCCC(=O)NO)C3C(=O)N[C@H](C(=O)OC1CCCC1)c1ccccc1 (stereo partly drawn) [Compound 13, (S)-{[2-(7-Hydroxycarbamoyl-heptanoyl)-6-methoxy-2,3,4,9-tetrahydro-1H-beta-carboline-1-carbonyl]amino}-phenyl-acetic acid cyclopentyl ester] | 101 to 1000 | – | – | 0.33 to 3.3 | > 3.3 | 0.33 to 3.3
9 | O=C(CCCCCCC(=O)Nc1ccc(CN[C@H](C(=O)O)c2ccccc2)cc1)NO [Compound 21, (S)-[4-(7-Hydroxycarbamoyl-heptanoylamino)-benzylamino]-phenyl-acetic acid] | 101 to 1000 | > 3.3 | > 3.3 | > 3.3 | – | –
10 | CC(C)(C)OC[C@H](NCc1ccc(NC(=O)CCCCCCC(=O)NO)cc1)C(=O)OC1CCCC1 [Compound 89, (S)-3-tert-Butoxy-2-[4-(7-hydroxycarbamoyl-heptanoylamino)-benzylamino]-propionic acid cyclopentyl ester] | 101 to 1000 | > 3.3 | < 0.33 | 0.33 to 3.3 | – | –
11 | O=C(NO)c1cc2ccc(CNCc3ccc(CN[C@H](C(=O)OC4CCCC4)c4ccccc4)cc3)cc2s1 [Compound 124, (S)-(4-{[(2-Hydroxycarbamoyl-benzo[b]thiophen-6-ylmethyl)-amino]-methyl}-benzylamino)-phenyl-acetic acid cyclopentyl ester] | 101 to 1000 | 0.33 to 3.3 | < 0.33 | 0.33 to 3.3 | – | –
12 | O=C(CCCCCCC(=O)N1CCc2c([nH]c3ccc(OCC(=O)N[C@H](C(=O)OC4CCCC4)c4ccccc4)cc23)C1)NO [Compound 24, (S)-{2-[2-(7-Hydroxycarbamoyl-heptanoyl)-2,3,4,9-tetrahydro-1H-beta-carbolin-6-yloxy]-acetylamino}-phenyl-acetic acid cyclopentyl ester] | 101 to 1000 | > 3.3 | > 3.3 | 0.33 to 3.3 | – | –
13 | O=C(NO)c1cc2ccc(CNCc3ccc(CN[C@H](C(=O)OC4CCCC4)C4CCCCC4)cc3)cc2s1 [Compound 116, (S)-Cyclohexyl-(4-{[(2-hydroxycarbamoyl-benzo[b]thiophen-6-ylmethyl)-amino]-methyl}-benzylamino)-acetic acid cyclopentyl ester] | 101 to 1000 | > 3.3 | 0.33 to 3.3 | > 3.3 | – | –

Second part, the compound after the results:

Row | IC50 [1] [nM] | IC50 ([2]; Homo sapiens, HeLa) [µM] | IC50 [3, 5] [µM] | IC50 [4] [µM] | IC50 [2] [µM] | IC50 ([3]; U937 cells) [µM] | SMILES
14 | < 100 | 0.33 to 3.3 | < 0.33 | 0.33 to 3.3 | – | – | O=C(CCCCCCC(=O)Nc1cccc(CCN[C@H](C(=O)OC2CCCC2)c2ccccc2)c1)NO [Compound 71, (S)-{2-[3-(7-Hydroxycarbamoyl-heptanoylamino)-phenyl]-ethylamino}-phenyl-acetic acid cyclopentyl ester]
15 | 101 to 1000 | > 3.3 | > 3.3 | > 3.3 | – | – | O=C(CCCCCCC(=O)N1Cc2[nH]c3ccccc3c2C[C@H]1C(=O)N[C@@H](Cc1ccccc1)C(=O)O)NO [Compound 8, (S)-2-{[(S)-2-(7-Hydroxycarbamoyl-heptanoyl)-2,3,4,9-tetrahydro-1H-beta-carboline-3-carbonyl]-amino}-3-phenyl-propionic acid]
16 | > 1000 | > 3.3 | 0.33 to 3.3 | 0.33 to 3.3 | – | – | CCOC(=O)[C@H](CC(C)C)NC(=O)[C@@H]1Cc2ccccc2CN1C(=O)CCCCCCC(=O)NO [Compound 50, (S)-2-{[(S)-2-(7-Hydroxycarbamoyl-heptanoyl)-1,2,3,4-tetrahydro-isoquinoline-3-carbonyl]-amino}-4-methyl-pentanoic acid ethyl ester]
17 | 101 to 1000 | > 3.3 | > 3.3 | > 3.3 | – | – | O=C(CCCCCCC(=O)N1CCc2c([nH]c3ccc(OCC(=O)N[C@H](C(=O)O)c4ccccc4)cc23)C1)NO [Compound 25]
18 | 101 to 1000 | > 3.3 | < 0.33 | 0.33 to 3.3 | – | – | CC(C)C[C@H](NCc1ccc(NC(=O)CCCCCCC(=O)NO)cc1)C(=O)OC1CCCC1 [Compound 85, (S)-2-[4-(7-Hydroxycarbamoyl-heptanoylamino)-benzylamino]-4-methyl-pentanoic acid cyclopentyl ester]
19 | 101 to 1000 | 0.33 to 3.3 | 0.33 to 3.3 | 0.33 to 3.3 | – | – | O=C(CCCCCCC(=O)N1CCc2c([nH]c3ccccc23)C1C(=O)NC(C(=O)OC1CCCC1)c1ccccc1)NO [Compound 9, (S)-{[2-(7-Hydroxycarbarnoyl-heptanoyl)-2,3,4,9-tetrahydro-1H-beta-carboline-1-carbonyl]-amino}-phenyl-acetic acid cyclopentyl ester]
20 | < 100 | 0.33 to 3.3 | < 0.33 | 0.33 to 3.3 | – | – | O=C(CCCCCCC(=O)Nc1cccc(OCCN[C@@H](Cc2ccccc2)C(=O)OC2CCCC2)c1)NO [Compound 73, (S)-2-{2-[3-(7-Hydroxycarbamoyl-heptanoylamino)-phenoxy]-ethylamino}-3-phenyl-propionic acid cyclopentyl ester]
21 | 101 to 1000 | > 3.3 | 0.33 to 3.3 | 0.33 to 3.3 | – | – | CC(C)C[C@H](NC(=O)[C@@H]1Cc2ccc(NC(=O)CCCCCCC(=O)NO)cc2CN1)C(=O)OC1CCCC1 [Compound 96, (S)-2-{[(S)-7-(7-Hydroxycarbamoyl-heptanoylamino)-1,2,3,4-tetrahydro-isoquinoline-3-carbonyl]-amino}-4-methyl-pentanoic acid cyclopentyl ester]
22 | > 1000 | > 3.3 | 0.33 to 3.3 | > 3.3 | – | – | O=C(NO)c1cc2ccc(CNc3cccc(CN[C@H](C(=O)OC4CCCC4)C4CCCCC4)c3)cc2s1 [Compound 131, (S)-{3-[(2-Hydroxycarbamoyl-benzo[b]thiophen-6-ylmethyl)-amino]-benzylamino}-cyclohexyl-acetic acid cyclopentyl ester]
23 | < 100 | < 0.33 | < 0.33 | < 0.33 | – | – | C[C@H](NCc1ccc(CNCc2ccc3cc(C(=O)NO)sc3c2)cc1)C(=O)OC1CCCC1 [Compound 118, (S)-2-(4-{[(2-Hydroxycarbamoyl-benzo[b]thiophen-6-ylmethyl)-amino]-methyl}-benzylamino)-propionic acid cyclopentyl ester]
